One data set concerns the target T1, ALK2 (R206H) (Homo sapiens, UniProt Q04771, R206H).
T1 sequence (Q04771 21-509 R206H): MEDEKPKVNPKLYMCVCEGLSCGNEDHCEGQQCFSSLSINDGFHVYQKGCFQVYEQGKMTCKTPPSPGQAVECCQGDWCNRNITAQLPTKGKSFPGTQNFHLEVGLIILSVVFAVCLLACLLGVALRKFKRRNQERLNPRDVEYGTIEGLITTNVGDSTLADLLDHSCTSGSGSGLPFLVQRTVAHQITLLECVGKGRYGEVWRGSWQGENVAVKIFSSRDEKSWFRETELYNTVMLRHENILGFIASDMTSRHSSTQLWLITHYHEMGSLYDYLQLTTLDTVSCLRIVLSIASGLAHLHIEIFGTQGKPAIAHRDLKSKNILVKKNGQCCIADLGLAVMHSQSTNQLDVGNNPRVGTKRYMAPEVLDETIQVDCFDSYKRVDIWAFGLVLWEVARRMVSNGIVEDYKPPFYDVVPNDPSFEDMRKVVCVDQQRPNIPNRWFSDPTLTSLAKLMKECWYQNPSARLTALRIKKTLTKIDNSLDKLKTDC
The data set is described as follows: In vitro enzyme assay. Format: biochemical.

The nature of another data set: Aqueous solubility. Format: physicochemical.
A further data set is described as follows: Partition coefficient. Format: physicochemical.
A further data set is described as follows: Plasma protein binding. The class given is in vitro ADME.
In a further data set the target is T2, CYP1A2 (Homo sapiens, UniProt P05177).
T2 sequence (P05177 1-516): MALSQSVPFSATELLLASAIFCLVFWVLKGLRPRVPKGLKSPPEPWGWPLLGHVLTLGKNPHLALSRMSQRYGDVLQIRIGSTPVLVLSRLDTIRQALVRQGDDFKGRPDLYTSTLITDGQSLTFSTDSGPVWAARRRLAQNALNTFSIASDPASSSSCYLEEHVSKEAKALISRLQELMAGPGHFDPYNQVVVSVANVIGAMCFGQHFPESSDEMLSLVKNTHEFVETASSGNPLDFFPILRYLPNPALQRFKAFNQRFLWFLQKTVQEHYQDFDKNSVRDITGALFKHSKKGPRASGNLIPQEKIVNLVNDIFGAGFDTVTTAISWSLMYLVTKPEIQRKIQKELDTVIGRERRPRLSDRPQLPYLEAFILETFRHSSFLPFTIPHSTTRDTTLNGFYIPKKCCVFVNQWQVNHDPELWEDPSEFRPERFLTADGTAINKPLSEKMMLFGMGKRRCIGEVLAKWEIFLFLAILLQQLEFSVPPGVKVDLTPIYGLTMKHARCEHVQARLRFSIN
The data set is described as follows: Cytochrome P450 inhibition, CYP1A2. Format: in vitro ADME.

In the next data set the target is CYP2C9 (Homo sapiens, UniProt P11712). Nature of the data set: Cytochrome P450 inhibition, CYP2C9. Format: in vitro ADME.
The next data set has as its target CYP2C19 (Homo sapiens, UniProt P33261). Nature of the data set: Cytochrome P450 inhibition, CYP2C19. The class given is in vitro ADME.
For a further data set, the target named is CYP2D6 (Homo sapiens, UniProt P10635). Nature of the data set: Cytochrome P450 inhibition, CYP2D6. Format: in vitro ADME.
For another data set, the target named is CYP3A4 (Homo sapiens, UniProt P08684). Nature of the data set: Cytochrome P450 inhibition, CYP3A4. Format: in vitro ADME.
The next data set relates to HepG2 cells. The data set is described as follows: In vitro toxicity, HepG2 cell viability. Format: cell-based.
The conditions of data set [1]: cited from earlier work.
The conditions of data set [2]: cited from earlier work. This is another data set of the same source.
A further data set relates to ALK2 over ALK5. Particulars: cited from earlier work.

CYP2C19, sequence (P33261 whole entry): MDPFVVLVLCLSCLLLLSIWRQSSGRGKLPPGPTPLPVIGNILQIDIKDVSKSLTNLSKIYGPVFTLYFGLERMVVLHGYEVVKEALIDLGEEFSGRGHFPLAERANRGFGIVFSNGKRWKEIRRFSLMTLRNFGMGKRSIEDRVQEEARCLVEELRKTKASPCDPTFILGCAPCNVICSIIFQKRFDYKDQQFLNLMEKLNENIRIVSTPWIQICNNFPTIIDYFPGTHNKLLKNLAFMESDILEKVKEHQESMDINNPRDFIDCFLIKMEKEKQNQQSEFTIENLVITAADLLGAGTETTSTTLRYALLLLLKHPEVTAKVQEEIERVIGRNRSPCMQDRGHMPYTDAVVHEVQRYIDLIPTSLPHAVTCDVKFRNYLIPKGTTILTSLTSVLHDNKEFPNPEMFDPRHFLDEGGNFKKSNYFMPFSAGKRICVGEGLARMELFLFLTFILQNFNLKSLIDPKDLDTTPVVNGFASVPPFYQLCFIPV
CYP2D6, sequence (P10635 whole entry): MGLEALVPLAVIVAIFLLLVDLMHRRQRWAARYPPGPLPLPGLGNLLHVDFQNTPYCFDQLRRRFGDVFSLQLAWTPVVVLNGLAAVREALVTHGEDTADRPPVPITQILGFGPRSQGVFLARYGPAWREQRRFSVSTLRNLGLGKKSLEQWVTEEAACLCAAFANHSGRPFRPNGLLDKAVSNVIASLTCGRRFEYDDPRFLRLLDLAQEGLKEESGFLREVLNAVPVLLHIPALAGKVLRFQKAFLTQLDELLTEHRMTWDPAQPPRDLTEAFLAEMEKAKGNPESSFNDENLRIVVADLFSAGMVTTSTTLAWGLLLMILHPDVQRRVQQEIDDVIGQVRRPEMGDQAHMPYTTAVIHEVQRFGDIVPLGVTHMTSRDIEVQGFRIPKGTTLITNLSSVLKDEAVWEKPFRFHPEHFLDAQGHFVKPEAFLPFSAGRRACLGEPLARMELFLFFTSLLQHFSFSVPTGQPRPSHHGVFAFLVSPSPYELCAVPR
CYP2C9, sequence (P11712 whole entry): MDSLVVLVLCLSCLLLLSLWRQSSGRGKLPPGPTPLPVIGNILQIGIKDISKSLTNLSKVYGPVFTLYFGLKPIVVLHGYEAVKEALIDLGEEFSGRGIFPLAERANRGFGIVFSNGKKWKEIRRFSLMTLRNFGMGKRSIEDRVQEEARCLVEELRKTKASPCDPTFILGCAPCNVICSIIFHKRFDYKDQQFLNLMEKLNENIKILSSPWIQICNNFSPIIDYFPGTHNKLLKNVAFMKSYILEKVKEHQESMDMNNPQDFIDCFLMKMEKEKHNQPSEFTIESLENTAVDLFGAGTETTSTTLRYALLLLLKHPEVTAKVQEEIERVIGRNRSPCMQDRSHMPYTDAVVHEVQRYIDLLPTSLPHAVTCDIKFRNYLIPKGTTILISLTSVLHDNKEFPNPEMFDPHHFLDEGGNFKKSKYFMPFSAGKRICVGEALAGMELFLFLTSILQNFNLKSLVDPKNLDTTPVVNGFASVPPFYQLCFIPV
CYP3A4, sequence (P08684 whole entry): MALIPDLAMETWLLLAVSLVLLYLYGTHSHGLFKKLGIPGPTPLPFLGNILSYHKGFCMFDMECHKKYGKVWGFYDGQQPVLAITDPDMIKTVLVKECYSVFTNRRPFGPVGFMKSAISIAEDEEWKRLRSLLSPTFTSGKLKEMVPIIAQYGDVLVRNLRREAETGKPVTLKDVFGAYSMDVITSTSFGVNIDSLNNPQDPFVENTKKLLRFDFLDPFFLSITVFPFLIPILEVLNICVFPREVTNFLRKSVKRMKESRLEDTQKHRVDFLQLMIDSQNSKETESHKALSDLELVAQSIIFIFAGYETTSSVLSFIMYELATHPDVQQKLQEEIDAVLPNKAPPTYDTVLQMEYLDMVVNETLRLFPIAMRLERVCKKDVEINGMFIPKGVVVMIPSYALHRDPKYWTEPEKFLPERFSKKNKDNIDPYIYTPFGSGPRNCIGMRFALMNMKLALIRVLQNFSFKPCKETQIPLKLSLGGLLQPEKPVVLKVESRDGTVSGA

As for `c1cncc(-c2n[nH]cc2-c2ccnc(Nc3ccc(N4CCNCC4)cc3)n2)c1` [Compound 1, N-[4-(Piperazin-1-yl)phenyl]-4-(3-pyridin-3-yl-1H-pyrazol-4-yl)pyrimidin-2-amine], it took 47.9 nM to reach half-maximal inhibition on ALK2 (R206H) (IC50).

`c1ccc2c(-c3cnn4cc(-c5ccc(N6CCNCC6)cc5)cnc34)ccnc2c1` [LDN-193189]: the aqueous solubility – broadly, how much of the substance goes into solution per volume – at pH 7.4 in the data set “Aqueous solubility” is 10.6 μg/mL. For the same compound, the “partition coefficient (log D, n-octanol/PBS, pH 7.4)” value in “Partition coefficient” is given as 2.26. Also, in the data set “Plasma protein binding”, the “PPB human (%) at 10 μM” value is reported as 97.8%. Besides, at CYP1A2, the “CYP1A2 % inh. at 10 μM” value is 28%. Further, on CYP2C9, the “CYP2C9 % inh. at 10 μM” value amounted to 30%. Moreover, the “CYP2C19 % inh. at 10 μM” value at CYP2C19 was determined as 34%. Besides, the “CYP2D6 % inh. at 10 μM” value at CYP2D6 came to 30%. The “CYP3A4 % inh. at 10 μM” value on CYP3A4 was determined as 82%. The “in vitro toxicity HepG2 cell (% viability at 30 μM)” value in the data set with HepG2 cells is 77%. For the same compound, in data set [1], the “solubility in aqueous solutions (in words)” value was “poorly soluble”. Besides, the “binding to serum proteins (in words)” value in data set [2] is recorded as “highly bound”.

`c1cc(-c2cnn3cc(-c4ccc(N5CCNCC5)cc4)cnc23)c2cccnc2c1` [LDN-212854]: in data set [1], the “solubility in aqueous solutions (in words)” value was “poorly soluble”. Moreover, in [2], the “binding to serum proteins (in words)” value is recorded as “highly bound”.

Take `COc1cc(-c2cc(-c3ccc(N4CCNCC4)cc3)cnc2C)cc(OC)c1OC` [LDN-214117]: the “selectivity for ALK2 over ALK5” value in the data set with ALK2 over ALK5 is “more than 100 fold”.

Values taken from article PMC7254505 (ACS Omega, 2020).
